Experimental data as given in the NIST ThermoML archive (doi:10.1021/je700191v).
± gives the expanded uncertainty stated by the source.

Assay: mn = molality of the nth substance listed, in mol/kg
Conditions: 101 kPa, Liquid

CC1(C)S[C@@H]2[C@H](NC(=O)Cc3ccccc3)C(=O)N2[C@H]1C(=O)[O-].[K+] + O
mass density [kg/m3]
Conditions	293.15 K	298.15 K	303.15 K	308.15 K
m1 = 0.01891	1000.62 ± 0.35	999.45 ± 0.35	–	–
m1 = 0.01952	–	–	998.081 ± 0.35	996.399 ± 0.36
m1 = 0.03888	–	–	1000.47 ± 0.35	998.73 ± 0.35
m1 = 0.03922	1003.15 ± 0.36	1001.98 ± 0.35	–	–
m1 = 0.05831	–	–	1002.85 ± 0.36	1001.06 ± 0.35
m1 = 0.05967	1005.7 ± 0.37	1004.5 ± 0.36	–	–
m1 = 0.07995	–	–	1005.48 ± 0.37	1003.59 ± 0.36
m1 = 0.08039	1008.26 ± 0.38	1007.04 ± 0.38	–	–
m1 = 0.1	–	–	1007.88 ± 0.38	1006.02 ± 0.37
m1 = 0.1008	1010.74 ± 0.39	1009.5 ± 0.39	–	–
m1 = 0.1193	–	–	1010.19 ± 0.39	1008.28 ± 0.38
m1 = 0.1217	1013.28 ± 0.4	1011.99 ± 0.39	–	–
